Target: T1, LRRK2 (Homo sapiens, UniProt Q5S007, G2019S)
T1 construct: purchased Invitrogen PV4882 (lot 567054A)
Test: In Vitro LRRK2 Assay (LabChip 3000, fluorescently-labeled peptide substrate, ATP)
Format: biochemical
Conditions: read-out: LRRK2 Ki (KI), Table 7
Experimental: This assay was used to determine a compound's potency in inhibiting activity of LRRK2 by determining, Kiapp, IC50, or percent inhibition values. In a polypropylene plate, LRRK2, fluorescently-labeled peptide substrate, ATP and test compound were incubated together. Using a LabChip 3000 (Caliper Life Sciences), after the reaction the substrate was separated by capillary electrophoresis into two populations: phosphorylated and unphosphorylated. The relative amounts of each were quantitated by fluorescence intensity. LRRK2 Ki was determined according to the equation: Y=V0*(1−(x+Ki*(1+S/Km)+Et)/(2*Et)−(((x+Ki*(1+S/Km)+Et)^2−(4*Et*x))^0.5)/(2*Et))). Ki values in Table 4 and elsewhere herein are shown in μM.
Assay conditions and materials used were as follows:
Compound Plate Preparation:
For serial dilutions, 34.6 μl DMSO was added to columns 3-24.
Total and Blank Preparation:
In Complete Reaction Buffer, substrate was diluted to 4 μM. Equal volumes of Complete Reaction Buffer and 4 μM substrate were combined to obtain the blank. Equal volumes of Complete Reaction Buffer and 4 μM substrate were combined and to the combined solution was added 2× final LRRK2 concentration.
To a 50 μl polypropylene plate, 5 μl/well buffer/substrate was added by hand to Blank wells. A Biomek FX was used to start the kinase reaction (“PLK SAR 23 ATP”). The following were added to the appropriate wells:
5 μl/well compound/ATP in Assay Plate;
5 μl/well kinase/substrate in Assay Plate;
The plate was incubated for 2 hours in the dark. Biomek FX was used to stop the kinase reaction (“PLK Stop”), and 10 μl/well Stop solution was added to the Assay Plate. Results were read on the LabChip 3000.
The LabChip 3000 was run using the job “LRRK2 IC50” with the following job settings: […]

T1 sequence (Q5S007 whole entry G2019S): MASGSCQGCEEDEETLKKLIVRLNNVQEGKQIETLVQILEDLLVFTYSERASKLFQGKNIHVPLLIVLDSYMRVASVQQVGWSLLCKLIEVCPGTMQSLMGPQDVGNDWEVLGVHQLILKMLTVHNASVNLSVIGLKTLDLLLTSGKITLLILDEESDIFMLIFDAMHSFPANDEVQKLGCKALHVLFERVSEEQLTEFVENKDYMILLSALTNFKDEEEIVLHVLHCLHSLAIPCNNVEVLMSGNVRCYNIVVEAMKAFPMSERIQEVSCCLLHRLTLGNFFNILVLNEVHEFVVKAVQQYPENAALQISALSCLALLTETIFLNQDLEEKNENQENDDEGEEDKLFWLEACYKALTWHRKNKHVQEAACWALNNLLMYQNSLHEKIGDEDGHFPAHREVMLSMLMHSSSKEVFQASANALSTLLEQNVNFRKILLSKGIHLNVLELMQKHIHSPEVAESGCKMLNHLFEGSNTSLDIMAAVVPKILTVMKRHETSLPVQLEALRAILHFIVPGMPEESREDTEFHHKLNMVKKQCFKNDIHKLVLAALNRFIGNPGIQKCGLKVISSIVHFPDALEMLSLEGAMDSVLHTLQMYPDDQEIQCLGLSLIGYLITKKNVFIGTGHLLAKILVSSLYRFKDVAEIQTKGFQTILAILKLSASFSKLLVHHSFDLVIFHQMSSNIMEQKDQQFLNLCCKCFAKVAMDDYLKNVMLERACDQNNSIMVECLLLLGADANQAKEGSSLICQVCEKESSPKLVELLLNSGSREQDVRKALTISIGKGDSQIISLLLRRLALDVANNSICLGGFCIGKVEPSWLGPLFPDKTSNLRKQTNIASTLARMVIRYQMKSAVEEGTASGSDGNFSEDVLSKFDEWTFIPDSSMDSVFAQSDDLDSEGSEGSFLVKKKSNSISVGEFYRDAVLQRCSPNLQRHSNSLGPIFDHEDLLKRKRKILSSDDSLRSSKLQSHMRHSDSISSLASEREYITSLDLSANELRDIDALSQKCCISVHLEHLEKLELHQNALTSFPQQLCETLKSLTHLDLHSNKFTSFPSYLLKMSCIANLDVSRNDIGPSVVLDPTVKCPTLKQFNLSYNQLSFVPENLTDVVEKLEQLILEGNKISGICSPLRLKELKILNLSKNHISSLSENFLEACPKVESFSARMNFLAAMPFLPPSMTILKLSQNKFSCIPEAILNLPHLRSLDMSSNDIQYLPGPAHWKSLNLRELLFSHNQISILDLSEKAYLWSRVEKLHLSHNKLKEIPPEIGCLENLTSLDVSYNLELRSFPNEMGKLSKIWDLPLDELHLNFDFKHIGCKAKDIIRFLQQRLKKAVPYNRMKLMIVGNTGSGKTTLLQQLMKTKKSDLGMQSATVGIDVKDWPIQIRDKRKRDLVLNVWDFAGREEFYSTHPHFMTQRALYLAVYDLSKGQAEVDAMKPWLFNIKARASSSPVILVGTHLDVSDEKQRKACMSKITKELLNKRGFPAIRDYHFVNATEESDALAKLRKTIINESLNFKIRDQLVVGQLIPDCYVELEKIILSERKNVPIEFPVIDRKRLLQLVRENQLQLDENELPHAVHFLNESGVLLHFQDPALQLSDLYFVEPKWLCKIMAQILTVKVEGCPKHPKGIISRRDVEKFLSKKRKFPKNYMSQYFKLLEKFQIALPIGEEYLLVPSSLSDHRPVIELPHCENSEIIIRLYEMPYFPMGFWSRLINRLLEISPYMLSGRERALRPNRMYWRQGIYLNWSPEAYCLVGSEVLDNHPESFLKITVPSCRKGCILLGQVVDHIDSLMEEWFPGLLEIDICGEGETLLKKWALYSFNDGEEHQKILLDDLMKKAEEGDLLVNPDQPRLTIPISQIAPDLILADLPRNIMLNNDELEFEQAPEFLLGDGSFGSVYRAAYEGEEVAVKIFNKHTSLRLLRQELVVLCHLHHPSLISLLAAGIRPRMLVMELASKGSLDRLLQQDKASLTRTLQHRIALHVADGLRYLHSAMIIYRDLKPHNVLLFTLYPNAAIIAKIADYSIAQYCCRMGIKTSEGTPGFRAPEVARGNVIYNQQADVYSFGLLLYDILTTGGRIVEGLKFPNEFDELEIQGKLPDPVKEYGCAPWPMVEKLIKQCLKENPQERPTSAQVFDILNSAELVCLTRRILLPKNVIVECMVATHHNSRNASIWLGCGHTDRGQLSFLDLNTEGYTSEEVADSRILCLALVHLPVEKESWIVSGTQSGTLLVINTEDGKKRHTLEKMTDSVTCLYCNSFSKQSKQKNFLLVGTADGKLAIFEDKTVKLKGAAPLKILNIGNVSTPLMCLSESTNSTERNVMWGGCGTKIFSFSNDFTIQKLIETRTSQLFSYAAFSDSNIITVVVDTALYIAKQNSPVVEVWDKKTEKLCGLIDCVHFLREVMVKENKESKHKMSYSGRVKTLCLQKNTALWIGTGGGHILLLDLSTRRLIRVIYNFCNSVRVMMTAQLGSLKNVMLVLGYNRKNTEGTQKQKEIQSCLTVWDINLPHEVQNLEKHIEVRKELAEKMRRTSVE

Row | Ki | SMILES
1 | 15 nM | CNc1nc(Nc2cnn(CCN3CCOCC3)c2)ncc1C(F)(F)F [Example 3, N^4-methyl-N^2-(1-(2-morpholinoethyl)-1H-pyrazol-4-yl)-5-(trifluoromethyl) pyrimidine-2,4-diamine]
2 | 39 nM | Cc1c(Nc2ncc(Cl)c(OC3CCOCC3)n2)cnn1C [Example 9, 5-Chloro-N-(1,5-dimethyl-1H-pyrazol-4-yl)-4-(tetrahydro-2H-pyran-4-yloxy)pyrimidin-2-amine]
3 | 96 nM | CNc1nc(Nc2c(C)nn(C)c2C)ncc1C(F)(F)F [Example 10, N^4-methyl-5-(trifluoromethyl)-N^2-(1,3,5-trimethyl-1H-pyrazol-4-yl)pyrimidinc-2,4-diamine]
4 | 33 nM | CC(C)n1cc(Nc2ncc(Cl)c(OC3CCOCC3)n2)cn1 [Example 11, 5-Chloro-N-(1-isopropyl-1H-pyrazol-4-yl)-4-(tetrahydro-2H-pyran-4-yloxy)pyrimidin-2-amine]
5 | 9.1 nM | COc1nc(Nc2cnn(C)c2C)ncc1Cl [Example 12, 5-Chloro-N-(1,5-dimethyl-1H-pyrazol-4-yl)-4-methoxy-pyrimidin-2-amine]
6 | 12 nM | Cc1c(Nc2ncc(C(F)(F)F)c(N3CCCC3)n2)cnn1C [Example 13, N-(1,5-dimethyl-1H-pyrazol-4-yl)-4-(pyrrolidin-1-yl)-5-(trifluoromethyl) pyrimidin-2-amine]
7 | 14.4 nM | COc1nc(Nc2cn(C)nc2C)ncc1Cl [Example 15, 5-Chloro-N-(1,3-dimethyl-1H-pyrazol-4-yl)-4-methoxy-pyrimidin-2-amine]
8 | 22 nM | COc1nc(Nc2cn(C3COC3)nc2C)ncc1Cl [Example 18, 5-Chloro-4-methoxy-N-(3-methyl-1-(oxetan-3-yl)-1H-pyrazol-4-yl)pyrimidin-2-amine]
9 | 15 nM | COCCn1cc(Nc2ncc(Cl)c(OC)n2)c(C)n1 [Example 19, 5-Chloro-4-methoxy-N-(1-(2-methoxyethyl)-3-methyl-1H-pyrazol-4-yl)pyrimidin-2-amine]
10 | 19 nM | COCCn1ncc(Nc2ncc(Cl)c(OC)n2)c1C [Example 20, 5-chloro-4-methoxy-N-(1-(2-methoxyethyl)-5-methyl-1H-pyrazol-4-yl)pyrimidin-2-amine]
11 | 20 nM | COc1nc(Nc2cnn(C)c2Cl)ncc1Cl [Example 21, 5-Chloro-N-(5-chloro-1-methyl-1H-pyrazol-4-yl)-4-methoxy-pyrimidin-2-amine]
12 | 27 nM | COc1nc(Nc2cn(CC(C)(C)O)nc2C)ncc1Cl [Example 23]
13 | 13 nM | CCn1cc(Nc2ncc(Cl)c(OC)n2)c(C)n1 [Example 26, 5-Chloro-N-(1-ethyl-3-methyl-1H-pyrazol-4-yl)-4-methoxy-pyrimidin-2-amine]
14 | 8.8 nM | CNc1nc(Nc2cn(C3COC3)nc2C)ncc1Cl [Example 27, 5-Chloro-N^4-methyl-N^2-(3-methyl-1-(oxetan-3-yl)-1H-pyrazol-4-yl)pyrimidine-2,4-diamine]
15 | 22 nM | COc1nc(Nc2cn(C(C)C)nc2C)ncc1Cl [Example 29, 5-Chloro-N-(1-isopropyl-3-methyl-1H-pyrazol-4-yl)-4-methoxy-pyrimidin-2-amine]
16 | 12 nM | CNc1nc(Nc2cn(C(C)C)nc2C)ncc1Cl [Example 31, 5-Chloro-N^2-(1-isopropyl-3-methyl-1H-pyrazol-4-yl)-N^4-methylpyrimidine-2,4-diamine]
17 | 24 nM | CNc1nc(Nc2cn(C3CCOCC3)nc2C)ncc1C(F)(F)F [Example 32, N^4-methyl-N^2-(3-methyl-1-(tetrahydro-2H-pyran-4-yl)-1H-pyrazol-4-yl)-5-(trifluoromethyl) pyrimidine-2,4-diamine]
18 | 267 nM | CNc1nc(Nc2ccnn2C)ncc1F [Example 35, 5-Fluoro-N^4-methyl-N^2-(2-methyl-2H-pyrazol-3-yl)-pyrimidine-2,4-diamine]
19 | 12 nM | CNc1nc(Nc2cc(C(C)C)nn2C)ncc1C(F)(F)F [Example 38, N^2-(3-isopropyl-1-methyl-1H-pyrazol-5-yl)-N^4-methyl-5-(trifluoromethyl) pyrimidine-2,4-diamine]
20 | 59 nM | COc1nc(Nc2cc(C3CC3)nn2C)ncc1Cl [Example 39, 5-Chloro-N-(3-cyclopropyl-1-methyl-1H-pyrazol-5-yl)-4-methoxy-pyrimidin-2-amine]

Row | Ki | SMILES
21 | 70 nM | COc1nc(Nc2cc(C(C)C)nn2C)ncc1Cl [Example 41, 5-Chloro-N-(3-isopropyl-1-methyl-1H-pyrazol-5-yl)-4-methoxy-pyrimidin-2-amine]
22 | 16 nM | CNc1nc(Nc2cc(C(C)C)nn2C)ncc1Cl [Example 42, 5-Chloro-N^2-(5-isopropyl-2-methyl-2H-pyrazol-3-yl)-N^4-methyl-pyrimidine-2,4-diamine]
23 | 13.4 nM | CNc1nc(Nc2cc(C3CC3)nn2C)ncc1Cl [Example 45, 5-Chloro-N^2-(5-cyclopropyl-2-methyl-2H-pyrazol-3-yl)-N^4-methyl-pyrimidine-2,4-diamine]
24 | 112 nM | CNc1nc(Nc2ccnn2C(C)C)ncc1C(F)(F)F [Example 47, N^2-(1-isopropyl-1H-pyrazol-5-yl)-N^4-methyl-5-(trifluoromethyl) pyrimidine-2,4-diamine]
25 | 7.8 nM | COc1nc(Nc2cn(S(C)(=O)=O)nc2C)ncc1Cl [Example 54, 5-chloro-4-methoxy-N-(3-methyl-1-(methylsulfonyl)-1H-pyrazol-4-yl)pyrimidin-2-amine]
26 | 27 nM | COc1nc(Nc2cnn(-c3ccccc3)c2C)ncc1Cl [Example 56, 5-chloro-4-methoxy-N-(5-methyl-1-phenyl-1H-pyrazol-4-yl)pyrimidin-2-amine]
27 | 2.5 nM | CNc1nc(Nc2ccn(C(C)C)n2)ncc1C(F)(F)F [Example 57, N^2-(1-isopropyl-1H-pyrazol-3-yl)-N4-methyl-5-(trifluoromethyl) pyrimidine-2,4-diamine]
28 | 3.6 nM | CNc1nc(Nc2cnn(CC(F)(F)F)c2C)ncc1C(F)(F)F [Example 58, N^4-methyl-N^2-(5-methyl-1-(2,2,2-trifluoroethyl)-1H-pyrazol-4-yl)-5-(trifluoromethyl) pyrimidine-2,4-diamine]
29 | 15 nM | COc1nc(Nc2cnn(-c3ccc(S(C)(=O)=O)cc3)c2C)ncc1Cl [Example 60, 5-chloro-4-methoxy-N-(5-methyl-1-(4-(methylsulfonyl)phenyl)-1H-pyrazol-4-yl)pyrimidin-2-amine]
30 | 4.6 nM | CCNc1nc(Nc2ccn(C)n2)ncc1C(F)(F)F [Example 61, N^4-ethyl-N^2-(1-methyl-1H-pyrazol-3-yl)-5-(trifluoromethyl) pyrimidine-2,4-diamine]
31 | 39 nM | Cc1c(Nc2ncc(Cl)c(OC3COC3)n2)cnn1C [Example 62, 5-chloro-N-(1,5-dimethyl-1H-pyrazol-4-yl)-4-(oxetan-3-yloxy)pyrimidin-2-amine]
32 | 24 nM | Cc1c(Nc2ncc(Cl)c(OCC(F)F)n2)cnn1C [Example 63, 5-chloro-4-(2,2-difluoroethoxy)-N-(1,5-dimethyl-1H-pyrazol-4-yl)pyrimidin-2-amine]
33 | 58.6 nM | Cc1c(Nc2ncc(Cl)c(OCC(F)(F)F)n2)cnn1C [Example 64, 5-chloro-N-(1,5-dimethyl-1H-pyrazol-4-yl)-4-(2,2,2-trifluoroethoxy) pyrimidin-2-amine]
34 | 2.9 nM | COc1nc(Nc2cn(C3CCOCC3)nc2C)ncc1Cl [Example 65, 5-chloro-4-methoxy-N-(3-methyl-1-(tetrahydro-2H-pyran-4-yl)-1H-pyrazol-4-yl)pyrimidin-2-amine]
35 | 66 nM | COc1nc(Nc2cn(C3CCN(C(=O)C4(C)CC4)CC3)nc2C)ncc1Cl [Example 66, (4-(4-(5-chloro-4-methoxy-pyrimidin-2-ylamino)-3-methyl-1H-pyrazol-1-yl)piperidin-1-yl)(1-methylcyclo-propyl) methanone]
36 | 89 nM | COc1nc(Nc2cnn(C3CCN(C(=O)C4(C)CC4)CC3)c2C)ncc1Cl [Example 67, (4-(4-(5-chloro-4-methoxy-pyrimidin-2-ylamino)-5-methyl-1H-pyrazol-1-yl)piperidin-1-yl)(1-methylcyclo-propyl) methanone]
37 | 2.4 nM | COc1nc(Nc2cn(-c3ccc(C#N)cc3)nc2C)ncc1Cl [Example 68, 4-(4-(5-chloro-4-methoxy-pyrimidin-2-ylamino)-3-methyl-1H-pyrazol-1-yl)benzonitrile]
38 | 55 nM | COc1nc(Nc2cn(-c3ccncc3C)nc2C)ncc1Cl [Example 69, 5-chloro-4-methoxy-N-(3-methyl-1-(3-methylpyridin-4-yl)-1H-pyrazol-4-yl)pyrimidin-2-amine]
39 | 15 nM | COc1nc(Nc2cnn(S(=O)(=O)C3CC3)c2C)ncc1Cl [Example 70, 5-chloro-N-(1-(cyclopropyl-sulfonyl)-5-methyl-1H-pyrazol-4-yl)-4-methoxy-pyrimidin-2-amine]
40 | 20 nM | COc1nc(Nc2cn(S(=O)(=O)C3CC3)nc2C)ncc1Cl [Example 71, 5-chloro-N-(1-(cyclopropyl-sulfonyl)-3-methyl-1H-pyrazol-4-yl)-4-methoxy-pyrimidin-2-amine]

From US8815882B2, “Pyrazole aminopyrimidine derivatives as LRRK2 modulators” (Genentech, Inc., priority 2010, dated 2014)
